Assay results: US10201559B2, “Compositions of selenoorganic compounds and methods of use thereof” (Alltech, Inc., priority 2014, dated 2019)
Read-outs that look alike come from different tables or passages of the source. Square brackets hold non-standard residues; d marks the D form. Peptide text beside a SMILES is read from it. Sec = N[C@@H](C[SeH])C(=O)O

Columns and labels:
HEK293T cells = assay: Fluorescence analysis of mitochondrial potential in HEK293T cells; type: cell-based, human; conditions: dose not stated
Experimental: HEK293T cells were cultured in 8-chamber glass slides (1×10^4 cells/chamber) for 24 hours, and then treated with various concentrations of compounds or its respective sulfur analogs (dissolved in sterilized water) for 4.5 hr. These compound-treated cells were rinsed twice with PBS, and incubated with Mitotracker Orange Fluorescence Dye (Invitrogen) at 37° C. for 30 min, and then replaced with fresh PBS according to the Manufacturer's protocol. Then fluorescent signals (mitochondrial potential) in these living cells were recorded using a Zeiss Axio Vert.A1 fluorescence microscope (Thornwood, N.Y.). At least three samples in each treatment group were analyzed under the fluorescent microscope.

C2C12 cells = assay: Quantitative analysis of mitochondrial potential in C2C12 cells; type: cell-based, mouse; conditions: all concentrations
Experimental: For C2C12 cells, equal number of cells (1×10^4) were seeded on Corning 96-well clear-bottom and dark-wall cell culture plates (VWR), cultured in 10% FBS DMEM media for 24 hr., and then treated with vehicle (sterilized water), compound C and D and their sulfur analogs for 24 and 48 hrs. These vehicle- or compound-treated cells were rinsed twice with PBS, incubated with Mitotracker Orange fluorescence dye at 37° C. for 30 min, and then replaced with PBS. Mitotracker Orange fluorescence intensities (mitochondrial potential) in these living cells were determined by a Bio-TeK Synergy HT Multi-Mode Fluorescence Microplate Reader (Winooski, Vt.). Eight samples per each treatment were examined for the above analysis, and data are presented as mean±sem of eight samples.

IMR-32 cells [1] = assay: Quantitative analysis of mitochondrial potential in IMR-32 cells; type: cell-based, human; conditions: 6 hr, compared to control
Experimental: Similar to the above studies on AML-12 cells, the mitochondrial potential per cell in living IMR-32 cells was determined using the Bio-TeK Synergy HT Multi-Mode fluorescence microplate reader with the following modifications. To improve the attachment of IMR-32 cells to culture dishes, cell culture plates were precoated with 0.1% gelatin (Sigma, St. Louis, Mo.). 2×10^4 cells per a 96-well were seeded on gelatinized 96-well plates for the above studies. To reduce the cell dislodgment, Mitotracker orange and Hoechst 33342 fluorescent dyes (diluted in culture media) were directly added to each well after vehicle- or compound-treatments. After dye incubation, cell culture media were carefully replaced with 1× PBS for the quantitation analysis of fluorescence on the microplate reader. Eight samples per each treatment were examined for the above analysis, and the experiments were repeated at least five times. Data are presented as mean±sem of eight samples.

IMR-32 cells [2] = assay: Cell viability assay, IMR-32; type: cell-based, human
Experimental: (§1) Cell viability in cultured cells was determined using Promega's CellTiter96® AQueous One Solution Cell Proliferation Assay kits, according to the Manufacturer's protocol. In brief, equal number of C2C12 (1×10^4 cells/well), AML-12 (1×10^4 cells/well) and IMR-32 (2×10^4 cells/well) were seeded on 96-well clear plates (VWR) and treated with vehicle or compounds for 24, […] and/or 72 hr. Then, cultured cells were incubated with AQueous One solution (100 ul/per well) at 37° C. for 1 hr, and the absorbance of OD490 nm in each sample was determined by the Bio-Tek microplate reader. Cell viability in culture cells were determined by the subtraction of OD490 nm in cultured cells with the OD490 nm in plain culture media (without seeding of cells). Eight samples per each treatment were examined for the above analysis. Data are presented as Mean±sem of eight samples.

AML-12 cells = assay: Cell viability assay, AML-12; type: cell-based, mouse
Experimental: as §1

[3] = test system: Adult rat brain ficoll purified mitochondria; assay: Mitochondrial bioenergetics screen (Seahorse OCR) on isolated rat brain mitochondria; type: biochemical; conditions: 500 ppb, 30 min at 37° C.
Text: A water soluble extract was obtained from selenized yeast. […] We reasoned that these selenium species would be the first to be liberated/digested from selenized yeast in its passage through the intestinal tract. […] Because we were primarily interested in the potential effects of these selenium species on mitochondrial bioenergetics, it was decided to test these selenium molecules directly using mitochondria.
Selenium concentration ranges low (50 ppb), mid (500 ppb) and high (1 ppm) were initially tested as a possible range for the compounds. […] Adult rat brain ficoll purified mitochondria were incubated with the 9 compounds for 30 min at 37° C. prior to being loading into the Seahorse Biosciences flux analyzer in triplicate. We measured OCR (Oxygen Consumption Rates) parameters in three respiratory states including ATP synthesis (State III), Complex I dependent (NADH-driven) Maximum Respiratory Capacity (State VFCCP) and Complex II (FADH-driven) dependent Maximum Respiratory Capacity (State Vsucc).

What does the source list for `CSC[C@H]1O[C@@H](n2cnc3c(N)ncnc32)[C@@H](O)C1O` (some centres unmarked) [compound H, 5′-Methylthioadenosine, reference compound]?
MT potential / mitochondrial activity in kidney cells (HEK293T cells): incapable of stimulating mitochondrial activity; mitochondrial potential (C2C12 cells): decreased mitochondrial potential at all concentrations; MT potential (IMR-32 cells [1]): Increased MT potential; cell viability (OD490 nm) (IMR-32 cells [2]; 24, 48 and 72 hr): slight decrease in viability; cell viability (OD490 nm) (AML-12 cells; 48 hr): no toxic effects

Which “mitochondrial potential (bioenergetics, OCR)” value [3] does the source give for `C[Se]C[C@H]1O[C@@H](n2cnc3c(N)ncnc32)[C@H](O)[C@@H]1O` [Compound 9, MethylSelenoadenosine] here?
The value was “increased mitochondrial potential”.

For `CSC[C@H](NC(=O)CC[C@H](N)C(=O)O)C(=O)O` [compound J, γ-L-glutamyl-methyl-L-cysteine, reference compound], which “MT potential / mitochondrial activity in kidney cells” value (HEK293T cells) is on record?
Its value is “incapable of stimulating mitochondrial activity”.

And the “cell viability (OD490 nm)” value (IMR-32 cells [2])?
The value was “slight decrease in viability”.

And the “cell viability (OD490 nm)” value (AML-12 cells)?
The value was “no toxic effects”.

With `Nc1ncnc2c1ncn2[C@@H]1O[C@H](CSCCC(N)C(=O)O)C(O)C1O` (stereo in doubt) [compound I, S-Adenosyl-L-homocysteine, reference compound] as the compound, how does the mitochondrial potential (C2C12 cells) read?
The mitochondrial potential was “decreased mitochondrial potential at all concentrations”.

What about the “cell viability (OD490 nm)” value (IMR-32 cells [2]; 24, 48 and 72 hr) of the same compound?
Its value is “slight decrease in viability”.

And the “cell viability (OD490 nm)” value (AML-12 cells; 48 hr)?
Its value is “no toxic effects”.

How did the “mitochondrial potential (bioenergetics, OCR)” value [3] turn out when “Leucine-Threonine-Glycine-Selenomethionine-Alanine-Phenylalanine-Arginine [Compound 7]” was run?
The value was “inhibited mitochondrial potential”.

With `N[C@@H](CCC(=O)O)C(=O)N[C@@H](C[SeH])C(=O)O` [Compound 10, Glutamylselenocysteine] (H-Glu-[Sec]-OH) as the compound, how does the “mitochondrial potential (bioenergetics, OCR)” value [3] read?
The value was “inhibited mitochondrial potential”.
